The source of these data is ChEMBL document CHEMBL1269000, “Synthesis and biological evaluation of [D-lysine]8cyclosporin A analogs as potential anti-HCV agents” (Bioorg Med Chem Lett, 2010).

Series [1] concerns Jurkat. In words: Immunosuppressive activity against human Jurkat cells assessed as inhibition of phytohemagglutinin-M/phorbol myristate acetate-induced IL2 production. It counts as cell-based.
Series [2] relates to Hepatitis C virus. The series is described as follows: Antiviral activity against HCV after 72 hrs by stable luciferase reporter gene assay. The format is functional, organism-based, Hepacivirus hominis.
In series [3] the target is Peptidyl-prolyl cis-trans isomerase B (Homo sapiens, UniProt P23284). In words: Binding affinity to cyclophilin B by ELISA.
Series [4] is described as follows: Cytotoxicity against human HuH7 cells assessed as release of lactate dehydrogenase. It counts as cell-based, Huh-7. As to conditions: for IC50: Homo sapiens, Huh-7; for IC90: human, HuH7 cells.
Series [5] has as its target Peptidyl-prolyl cis-trans isomerase A (Homo sapiens, UniProt P62937). The series is described as follows: Binding affinity to cyclophilin A by ELISA.

A value given as a limit tells only on which side of the number the result lay.

Chain of Peptidyl-prolyl cis-trans isomerase B (P23284 whole entry): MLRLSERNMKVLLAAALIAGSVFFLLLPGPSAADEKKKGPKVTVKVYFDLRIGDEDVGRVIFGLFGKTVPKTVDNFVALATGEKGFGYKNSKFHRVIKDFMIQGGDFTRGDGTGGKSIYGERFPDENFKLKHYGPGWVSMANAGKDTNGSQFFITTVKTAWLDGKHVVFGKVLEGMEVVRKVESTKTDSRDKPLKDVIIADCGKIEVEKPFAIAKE
Chain of Peptidyl-prolyl cis-trans isomerase A (P62937 whole entry): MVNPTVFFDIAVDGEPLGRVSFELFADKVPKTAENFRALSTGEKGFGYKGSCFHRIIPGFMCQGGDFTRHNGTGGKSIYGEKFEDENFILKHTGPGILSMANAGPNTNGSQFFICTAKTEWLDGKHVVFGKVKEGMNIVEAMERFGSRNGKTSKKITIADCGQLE

Regarding `C/C=C/C[C@@H](C)[C@@H](O)[C@H]1C(=O)N[C@@H](CC)C(=O)N(C)CC(=O)N(C)[C@@H](CC(C)C)C(=O)N[C@@H](C(C)C)C(=O)N(C)[C@@H](CC(C)C)C(=O)N[C@@H](C)C(=O)N[C@H](CN(C)C)C(=O)N(C)[C@@H](CC(C)C)C(=O)N(C)[C@@H](CC(C)C)C(=O)N(C)[C@@H](C(C)C)C(=O)N1C`, the EC50 worked out at 20 nM in series [1] and 190 nM in series [2]. In addition, the EC90 in series [2] was 670 nM. Further, the half-inhibitory concentration (IC50) in series [3] worked out at 25.2 nM; in series [4], 2050 nM; in series [5], 22.9 nM. The IC90 in series [4] is greater than 10000 nM.
For `C/C=C/C[C@@H](C)[C@@H](O)[C@H]1C(=O)N[C@@H](CC)C(=O)N(C)CC(=O)N(C)[C@@H](CC(C)C)C(=O)N[C@@H](C(C)C)C(=O)N(C)[C@@H](CC(C)C)C(=O)N[C@@H](C)C(=O)N[C@H](CCN(C)C)C(=O)N(C)[C@@H](CC(C)C)C(=O)N(C)[C@@H](CC(C)C)C(=O)N(C)[C@@H](C(C)C)C(=O)N1C`, the EC50 in series [1] is 24 nM; in series [2] it was 170 nM. In addition, the concentration for an effect of 90% (EC90) in series [2] was 300 nM. Moreover, the IC50 in series [3] was determined as 59.5 nM; in series [4], 3280 nM; in series [5], 46 nM. For the same molecule, in series [4], the IC90 was greater than 10000 nM.
Consider `C/C=C/C[C@@H](C)[C@@H](O)[C@H]1C(=O)N[C@@H](CC)C(=O)N(C)CC(=O)N(C)[C@@H](CC(C)C)C(=O)N[C@@H](C(C)C)C(=O)N(C)[C@@H](CC(C)C)C(=O)N[C@@H](C)C(=O)N[C@H](CCCN(C)C)C(=O)N(C)[C@@H](CC(C)C)C(=O)N(C)[C@@H](CC(C)C)C(=O)N(C)[C@@H](C(C)C)C(=O)N1C`, for which the results for the EC50 in series [1] and in series [2] were 39 nM and 140 nM, respectively. Further, the EC90 in series [2] was 380 nM. Besides, the IC50 in series [3] is 28.9 nM; in series [4] it was 2150 nM; in series [5], 35.2 nM. Also, in series [4], the IC90 is 8730 nM.
As to `C/C=C/C[C@@H](C)[C@@H](O)[C@H]1C(=O)N[C@@H](CC)C(=O)N(C)CC(=O)N(C)[C@@H](CC(C)C)C(=O)N[C@@H](C(C)C)C(=O)N(C)[C@@H](CC(C)C)C(=O)N[C@@H](C)C(=O)N[C@H](CCCCN(C)C)C(=O)N(C)[C@@H](CC(C)C)C(=O)N(C)[C@@H](CC(C)C)C(=O)N(C)[C@@H](C(C)C)C(=O)N1C`, the concentration for a half-maximal effect (EC50) worked out at 332 nM in series [1] and 140 nM in series [2]. The same molecule returned an EC90 in series [2] of 300 nM. Besides, the results for the IC50 in series [3], in series [4] and in series [5] were 97.1 nM, 2810 nM and 14 nM, respectively. Also, the 90% effect concentration (IC90) in series [4] was greater than 10000 nM.
As for `C/C=C/C[C@@H](C)[C@@H](O)[C@H]1C(=O)N[C@@H](CC)C(=O)N(C)CC(=O)N(C)[C@@H](CC(C)C)C(=O)N[C@@H](C(C)C)C(=O)N(C)[C@@H](CC(C)C)C(=O)N[C@@H](C)C(=O)N[C@H](CN(CC)CC)C(=O)N(C)[C@@H](CC(C)C)C(=O)N(C)[C@@H](CC(C)C)C(=O)N(C)[C@@H](C(C)C)C(=O)N1C`, the EC50 came to 55 nM in series [1] and 380 nM in series [2]. The EC90 in series [2] is 950 nM. Also, the IC50 in series [3] turned out to be 158 nM; in series [4], 2680 nM; in series [5], 140 nM. Besides, in series [4], the IC90 is greater than 10000 nM.
With `C/C=C/C[C@@H](C)[C@@H](O)[C@H]1C(=O)N[C@@H](CC)C(=O)N(C)CC(=O)N(C)[C@@H](CC(C)C)C(=O)N[C@@H](C(C)C)C(=O)N(C)[C@@H](CC(C)C)C(=O)N[C@@H](C)C(=O)N[C@H](CCN(CC)CC)C(=O)N(C)[C@@H](CC(C)C)C(=O)N(C)[C@@H](CC(C)C)C(=O)N(C)[C@@H](C(C)C)C(=O)N1C`, the concentration giving a half-maximal response (EC50) in series [1] turned out to be 114 nM; in series [2] it was 170 nM. In addition, the EC90 in series [2] was 350 nM. The values for the half-maximal inhibitory concentration (IC50) in series [3], in series [4] and in series [5] were 55.9 nM, 1500 nM and 65.2 nM, respectively. The IC90 in series [4] came to 8620 nM.
`C/C=C/C[C@@H](C)[C@@H](O)[C@H]1C(=O)N[C@@H](CC)C(=O)N(C)CC(=O)N(C)[C@@H](CC(C)C)C(=O)N[C@@H](C(C)C)C(=O)N(C)[C@@H](CC(C)C)C(=O)N[C@@H](C)C(=O)N[C@H](CCCN(CC)CC)C(=O)N(C)[C@@H](CC(C)C)C(=O)N(C)[C@@H](CC(C)C)C(=O)N(C)[C@@H](C(C)C)C(=O)N1C`: the EC50 in series [1] was 134 nM; in series [2], 150 nM. The EC90 in series [2] was 370 nM. Further, the concentration for half-maximal inhibition (IC50) was 17.2 nM in series [3], 1820 nM in series [4] and 21.4 nM in series [5]. Also, in series [4], the IC90 came to 8910 nM.
Take `C/C=C/C[C@@H](C)[C@@H](O)[C@H]1C(=O)N[C@@H](CC)C(=O)N(C)CC(=O)N(C)[C@@H](CC(C)C)C(=O)N[C@@H](C(C)C)C(=O)N(C)[C@@H](CC(C)C)C(=O)N[C@@H](C)C(=O)N[C@H](CCCCN(CC)CC)C(=O)N(C)[C@@H](CC(C)C)C(=O)N(C)[C@@H](CC(C)C)C(=O)N(C)[C@@H](C(C)C)C(=O)N1C`: the EC50 was determined as 2170 nM in series [1] and 180 nM in series [2]. The same molecule came in with an EC90 in series [2] of 530 nM. The IC50 in series [3] is 19.8 nM; in series [4], 2240 nM; in series [5], 26.6 nM. Further, the IC90 in series [4] came to 7900 nM.
